Here are results for two molecules from ChEMBL document CHEMBL1136361, “5-amino-1-(2,6-dichloro-4-trifluoromethyl-phenyl)-3-[3H3]-methylsulfanyl-1H-pyrazole-4-carbonitrile (CTOM): synthesis and characterization of a novel and selective insect GABA receptor radioligand” (Bioorg Med Chem Lett, 2003).

Series [1] is described as follows: In vitro binding affinity against GABA receptor in house fly. Also noted: species or system Musca domestica.
Series [2] in a line: In vitro binding affinity against GABA receptor in mouse brain. The format is tissue-based.
Series [3] is described as follows: Mortality percent was determined in flea; range is 50-100%. The format is ADME. Particulars: pulicinae.

The structures appear in SMILES notation.

As a reminder, the Ki is a measure of affinity in units of concentration, obtained from inhibition or displacement. The low end stands for a stronger hold on the target, the high end for a looser hold on the target.

Turning to `CSc1nn(-c2c(Cl)cc(C(F)(F)F)cc2Cl)c(N)c1C#N`, the inhibition constant (Ki) in series [1] was determined as 8 nM; in series [2], 4 nM.

In series [3], `N#Cc1nn(-c2c(Cl)cc(C(F)(F)F)cc2Cl)c(N)c1[S+]([O-])C(F)(F)F` (stereo not drawn) [FIPRONIL] displayed a Mortality of 50%.
